Data from patent publication US9902728B2, “Pyrrolo and pyrazolopyrimidines as ubiquitin-specific protease 7 inhibitors” (Forma Therapeutics, Inc., priority 2014, dated 2018).

Biological target: T1, USP7 (Homo sapiens, UniProt Q93009)
T1 construct: USP7, construct USP7 (208-1102) 6*His, Viva Biotech; 6xHis (C); purchased Viva Biotech
Experiment: USP7 Assay A (Ubitquin-Rhodamine 110 Assay)
Assay type: biochemical
Conditions: USP7 activity in USP7 assay A and B (table does not say which assay per compound); read-out: USP7_IC50
Method in brief: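 Ub-Rh110 cleavage in 20 mM Tris-HCl pH 8.0 with 1 mM GSH, 0.03% BGG, 0.01% Triton X-100; compound preincubated with enzyme 30 min before substrate.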

T1 sequence (Q93009 208-1102): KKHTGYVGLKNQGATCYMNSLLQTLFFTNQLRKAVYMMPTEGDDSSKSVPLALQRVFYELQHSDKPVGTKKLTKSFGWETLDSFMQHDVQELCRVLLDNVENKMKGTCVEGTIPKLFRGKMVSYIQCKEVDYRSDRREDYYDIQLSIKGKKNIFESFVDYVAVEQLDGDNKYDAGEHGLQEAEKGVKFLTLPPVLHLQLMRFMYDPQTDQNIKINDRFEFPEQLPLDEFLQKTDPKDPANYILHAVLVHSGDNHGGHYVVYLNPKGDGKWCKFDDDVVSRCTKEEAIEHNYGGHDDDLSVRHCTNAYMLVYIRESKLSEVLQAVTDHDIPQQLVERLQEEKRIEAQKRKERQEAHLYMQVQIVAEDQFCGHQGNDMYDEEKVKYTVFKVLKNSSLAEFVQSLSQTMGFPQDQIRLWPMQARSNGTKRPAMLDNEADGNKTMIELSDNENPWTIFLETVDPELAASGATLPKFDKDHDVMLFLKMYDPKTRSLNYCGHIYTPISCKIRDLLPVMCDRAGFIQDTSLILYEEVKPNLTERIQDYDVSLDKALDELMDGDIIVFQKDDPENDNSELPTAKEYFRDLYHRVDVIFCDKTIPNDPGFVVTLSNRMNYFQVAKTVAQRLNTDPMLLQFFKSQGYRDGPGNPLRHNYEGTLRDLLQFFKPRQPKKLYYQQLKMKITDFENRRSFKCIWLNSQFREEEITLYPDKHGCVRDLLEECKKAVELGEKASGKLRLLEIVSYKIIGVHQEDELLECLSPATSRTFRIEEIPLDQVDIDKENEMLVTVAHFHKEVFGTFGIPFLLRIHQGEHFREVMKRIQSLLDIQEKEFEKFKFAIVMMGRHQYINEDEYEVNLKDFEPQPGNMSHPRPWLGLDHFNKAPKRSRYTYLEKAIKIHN

| SMILES | IC50 [nM] |
| --- | --- |
| O=C(c1ccnn1Cc1ccccc1)N1CCC(O)(Cn2cnc3c(cnn3-c3ccc(F)cc3)c2=O)CC1 [Compound I-541] | 200 to 1000 |
| O=C(C[C@@H](C(F)F)n1ccc(F)n1)N1CCC(O)(Cn2cnc3c(cnn3-c3ccc(F)cc3)c2=O)CC1 [Compound I-542] | < 200 |
| O=C(C[C@H](C(F)F)n1ccc(F)n1)N1CCC(O)(Cn2cnc3c(cnn3-c3ccc(F)cc3)c2=O)CC1 [Compound I-543] | 200 to 1000 |
| O=C(C1CCC(Oc2ccccn2)CC1)N1CCC(O)(Cn2cnc3c(cnn3-c3ccc(F)cc3)c2=O)CC1 (stereo not drawn) [Compound I-544] | 1000 to 10000 |
| O=C(C1CCC(Oc2ccccn2)CC1)N1CCC(O)(Cn2cnc3c(cnn3-c3ccc(F)cc3)c2=O)CC1 (stereo not drawn) [Compound I-545] | 200 to 1000 |
| O=C(C1CCC(Oc2ccccn2)CC1)N1CCC(O)(Cn2cnc3c(cnn3-c3ccc(F)cc3)c2=O)CC1 (stereo not drawn) [Compound I-546] | 200 to 1000 |
| O=C(c1ccc(Oc2ccccn2)cn1)N1CCC(O)(Cn2cnc3c(cnn3-c3ccc(F)cc3)c2=O)CC1 [Compound I-547] | 1000 to 10000 |
| O=C(C1CCC(n2cccn2)CC1)N1CCC(O)(Cn2cnc3c(cnn3-c3ccc(F)cc3)c2=O)CC1 (stereo not drawn) [Compound I-548] | 1000 to 10000 |
| O=C(C1CCC(n2cccn2)CC1)N1CCC(O)(Cn2cnc3c(cnn3-c3ccc(F)cc3)c2=O)CC1 (stereo not drawn) [Compound I-549] | 1000 to 10000 |
| O=C(c1ccc(-c2cnn3c2OCC3)cc1)N1CCC(O)(Cn2cnc3c(cnn3-c3ccc(F)cc3)c2=O)CC1 [Compound I-550] | 200 to 1000 |
| O=C(c1ccc(-c2cnn3c2OCCC3)cc1)N1CCC(O)(Cn2cnc3c(cnn3-c3ccc(F)cc3)c2=O)CC1 [Compound I-551] | 200 to 1000 |
| O=C(c1ccc(-c2cnn3c2NCCC3)cc1)N1CCC(O)(Cn2cnc3c(cnn3-c3ccc(F)cc3)c2=O)CC1 [Compound I-552] | 200 to 1000 |
| Nc1cc(Cl)ccc1C(=O)N1CCC(O)(Cn2cnc3c(cnn3-c3ccc(F)cc3)c2=O)CC1 [Compound I-554] | 1000 to 10000 |
| O=C(c1cnc(N2CCOCC2)o1)N1CCC(O)(Cn2cnc3c(cnn3-c3ccc(F)cc3)c2=O)CC1 [Compound I-555] | 200 to 1000 |
| O=C(c1nnc(C2CC2)o1)N1CCC(O)(Cn2cnc3c(cnn3-c3ccc(F)cc3)c2=O)CC1 [Compound I-556] | 1000 to 10000 |
| O=C(c1ncoc1Cc1ccccc1)N1CCC(O)(Cn2cnc3c(cnn3-c3ccc(F)cc3)c2=O)CC1 [Compound I-557] | 200 to 1000 |
| O=C(c1cccn1Cc1ccc(F)cc1)N1CCC(O)(Cn2cnc3c(cnn3-c3ccc(F)cc3)c2=O)CC1 [Compound I-558] | 200 to 1000 |
| O=C(c1cccn1Cc1c(F)cccc1F)N1CCC(O)(Cn2cnc3c(cnn3-c3ccc(F)cc3)c2=O)CC1 [Compound I-559] | 1000 to 10000 |
| O=C(c1cccn1Cc1cccc(F)c1)N1CCC(O)(Cn2cnc3c(cnn3-c3ccc(F)cc3)c2=O)CC1 [Compound I-560] | 200 to 1000 |
| O=C(c1cccn1Cc1ccccc1F)N1CCC(O)(Cn2cnc3c(cnn3-c3ccc(F)cc3)c2=O)CC1 [Compound I-561] | 200 to 1000 |
| Cn1cc(Oc2ccc(C(=O)N3CCC(O)(Cn4cnc5c(cnn5-c5ccc(F)cc5)c4=O)CC3)cc2)cn1 [Compound I-562] | 1000 to 10000 |
| Cc1cc(Oc2ccc(C(=O)N3CCC(O)(Cn4cnc5c(cnn5-c5ccc(F)cc5)c4=O)CC3)cc2)no1 [Compound I-563] | 1000 to 10000 |
| O=C(c1cn[nH]c1Cc1ccccc1)N1CCC(O)(Cn2cnc3c(cnn3-c3ccc(F)cc3)c2=O)CC1 [Compound I-603] | < 200 |
| CN1CC2CC1CN2c1ccc(C(=O)N2CCC(O)(Cn3cnc4c(cnn4-c4ccc(F)cc4)c3=O)CC2)cc1 (stereo not drawn) [Compound I-604] | 1000 to 10000 |

Same assay, conditions: USP7 assay A and B (table does not say which assay per compound); read-out: USP7_IC50

| SMILES | IC50 [nM] |
| --- | --- |
| C[C@H](CC(=O)N1CCC(O)(Cn2cnc3c(cnn3-c3ccc(F)cc3)c2=O)CC1)n1cccn1 [Compound I-515] | 1000 to 10000 |
| O=C(C[C@H](C(F)F)n1cccn1)N1CCC(O)(Cn2cnc3c(cnn3-c3ccc(F)cc3)c2=O)CC1 [Compound I-517] | 1000 to 10000 |
| O=C(C[C@@H](C(F)F)n1cccn1)N1CCC(O)(Cn2cnc3c(cnn3-c3ccc(F)cc3)c2=O)CC1 [Compound I-518] | < 200 |
| C[C@H](CC(=O)N1CCC(O)(Cn2cnc3c(cnn3-c3ccc(F)cc3)c2=O)CC1)n1cc2c(n1)CCC2 [Compound I-520] | > 10000 |
| C[C@@H](CC(=O)N1CCC(O)(Cn2cnc3c(cnn3-c3ccc(F)cc3)c2=O)CC1)n1ncc2c1CCC2 [Compound I-521] | > 10000 |
| C[C@H](CC(=O)N1CCC(O)(Cn2cnc3c(cnn3-c3ccc(F)cc3)c2=O)CC1)n1ncc2c1CCC2 [Compound I-522] | > 10000 |
| CC(CC(=O)N1CCC(O)(Cn2cnc3c(cnn3-c3ccc(F)cc3)c2=O)CC1)N1CC2CCCC2C1 (stereo not drawn) [Compound I-523] | > 10000 |
| C[C@@H](CC(=O)N1CCC(O)(Cn2cnc3c(cnn3-c3ccc(F)cc3)c2=O)CC1)N1CC2CCCC2C1 (stereo partly drawn) [Compound I-524] | 1000 to 10000 |
| C[C@H](CC(=O)N1CCC(O)(Cn2cnc3c(cnn3-c3ccc(F)cc3)c2=O)CC1)N1CC2CCCC2C1 (stereo partly drawn) [Compound I-525] | > 10000 |
| CC(O)(c1ccc(C(=O)N2CCC(O)(Cn3cnc4c(cnn4-c4ccc(F)cc4)c3=O)CC2)cc1)C(F)(F)F (stereo not drawn) [Compound I-526] | 1000 to 10000 |
| C[C@@](O)(c1ccc(C(=O)N2CCC(O)(Cn3cnc4c(cnn4-c4ccc(F)cc4)c3=O)CC2)cc1)C(F)(F)F [Compound I-527] | 1000 to 10000 |
| O=C(c1ccc(CN2CCCC2)cc1)N1CCC(O)(Cn2cnc3c(cnn3-c3ccc(F)cc3)c2=O)CC1 [Compound I-529] | 1000 to 10000 |
| Cc1ncc(C(=O)N2CCC(O)(Cn3cnc4c(cnn4-c4ccc(F)cc4)c3=O)CC2)o1 [Compound I-531] | 1000 to 10000 |
| CN1CCC(Oc2ccc(C(=O)N3CCC(O)(Cn4cnc5c(cnn5-c5ccc(F)cc5)c4=O)CC3)cc2)CC1 [Compound I-533] | 1000 to 10000 |
| O=C(c1ccc(-n2cccn2)cc1)N1CCC(O)(Cn2cnc3c(cnn3-c3ccc(F)cc3)c2=O)CC1 [Compound I-535] | 200 to 1000 |
| O=C(c1cnc(N2CCCCC2)o1)N1CCC(O)(Cn2cnc3c(cnn3-c3ccc(F)cc3)c2=O)CC1 [Compound I-536] | 1000 to 10000 |
| CN1CCN(c2ccc(C(=O)N3CCC(O)(Cn4cnc5c(cnn5-c5ccc(F)cc5)c4=O)CC3)cc2F)CC1 [Compound I-537] | 1000 to 10000 |
| O=C(c1ccc(Oc2ccccn2)cc1)N1CCC(O)(Cn2cnc3c(cnn3-c3ccc(F)cc3)c2=O)CC1 [Compound I-538] | 1000 to 10000 |
| O=C(c1ccc(Oc2ncccn2)cc1)N1CCC(O)(Cn2cnc3c(cnn3-c3ccc(F)cc3)c2=O)CC1 [Compound I-539] | 1000 to 10000 |
| C=CC(=O)N1CC[C@@H]1C(=O)N1CCC(O)(Cn2cnc3c(cnn3-c3ccc(F)cc3)c2=O)CC1 [Compound I-574] | 200 to 1000 |
| C=CC(=O)NC1CCC(C(=O)N2CCC(O)(Cn3cnc4c(cnn4-c4ccc(F)cc4)c3=O)CC2)CC1 (stereo not drawn) [Compound I-576] | 1000 to 10000 |
| C=CC(=O)N1CC[C@]1(C)C(=O)N1CCC(O)(Cn2cnc3c(cnn3-c3ccc(F)cc3)c2=O)CC1 [Compound I-580] | 200 to 1000 |
| C#CC(=O)N(C)C1CC(C(=O)N2CCC(O)(Cn3cnc4c(cnn4-c4ccc(F)cc4)c3=O)CC2)C1 (stereo not drawn) [Compound I-589] | 1000 to 10000 |
| CC1(O)CCN(Cc2cccc(C(=O)N3CCC(O)(Cn4cnc5c(cnn5-c5ccc(F)cc5)c4=O)CC3)c2)C1 (stereo not drawn) [Compound I-601] | > 10000 |
